Assay results from ChEMBL document CHEMBL1136043, “Synthesis of (+)-Lasonolide A: (-)-lasonolide A is the biologically active enantiomer” (2002).

Experiments:
Type in all cases: functional
A549 = assay: Concentration required for growth inhibition of human lung carcinoma cell line A549
HCT-116 = assay: Concentration required for growth inhibition human of human colon cancer cell line HCT116
NCI-H460 = assay: Concentration required for growth inhibition of human lung carcinoma cell line NCI-H460

SMILES | GI50 (A549) | GI50 (HCT-116) | GI50 (NCI-H460)
C=C(CCC(C)C)COC(=O)[C@H](O)C/C=C\C[C@@H]1O[C@@H]2/C=C/C/C=C/C(C)=C\[C@H]3O[C@@H](C/C=C/C=C/C(=O)O[C@H](C2)[C@@]1(C)CO)C[C@H](O)[C@H]3C [LASONOLIDE A] | 20 nM | < 3 nM | < 3 nM
C=C(CCC(C)C)COC(=O)[C@@H](O)C/C=C\C[C@@H]1O[C@@H]2/C=C/C/C=C/C(C)=C\[C@H]3O[C@@H](C/C=C/C=C/C(=O)O[C@H](C2)[C@@]1(C)CO)C[C@H](O)[C@H]3C | 50 nM | < 3 nM | 9 nM
C=C(CCC(C)C)COC(=O)[C@@H](O)C/C=C\C[C@@H]1O[C@@H]2/C=C\C/C=C/C(C)=C\[C@H]3O[C@@H](C/C=C/C=C/C(=O)O[C@H](C2)[C@@]1(C)CO)C[C@H](O)[C@H]3C | > 10000 nM | 5000 nM | 5000 nM
C=C(CCC(C)C)COC(=O)[C@@H](O)C/C=C\C[C@H]1O[C@H]2/C=C/C/C=C/C(C)=C\[C@@H]3O[C@H](C/C=C/C=C/C(=O)O[C@@H](C2)[C@]1(C)CO)C[C@@H](O)[C@@H]3C | 6000 nM | 2000 nM | 3000 nM
C=C(CCC(C)C)COC(=O)[C@@H](O)C/C=C/C[C@@H]1O[C@@H]2/C=C/C/C=C/C(C)=C\[C@H]3O[C@@H](C/C=C/C=C/C(=O)O[C@H](C2)[C@@]1(C)CO)C[C@H](O)[C@H]3C | 3200 nM | 40 nM | 100 nM
C=C(CCC(C)C)COC(=O)[C@H](O)C/C=C/C[C@@H]1O[C@@H]2/C=C/C/C=C/C(C)=C\[C@H]3O[C@@H](C/C=C/C=C/C(=O)O[C@H](C2)[C@@]1(C)CO)C[C@H](O)[C@H]3C | 2000 nM | 20 nM | 40 nM
